Common to all, as to format: functional, cell-based
The subject of one experiment is MCF7. Briefly: Cytotoxicity against human MCF7 cells after 48 hrs by SRB assay. The following applies: MCF7, 48 h.
For a further experiment, the system named is SK-MEL-2. Briefly: Cytotoxicity against human SK-MEL-2 cells after 48 hrs by SRB assay. The conditions noted are these: SK-MEL-2, 48 h. In general terms: Sulforhodamine B stains cellular protein and so reports cell mass.
The next experiment relates to LNCaP. Briefly: Cytotoxicity against human LNCAP cells after 48 hrs by SRB assay.
In another experiment the test system is KB. Briefly: Cytotoxicity against human KB cells after 48 hrs by SRB assay.
Another experiment relates to HepG2. Briefly: Cytotoxicity against human HepG2 cells after 48 hrs by SRB assay. The conditions noted are these: HepG2, 48 h.

For orientation: IC50 means the concentration that inhibits the measured activity by half. Higher therefore signals lower potency. In the case of `C=C(C)CCC[C@]1(C)OC(=O)[C@]23CC=C4[C@@H](CC[C@H]5C(C)(C)[C@@H](O[C@@H]6OC[C@@H](OS(=O)(=O)O)[C@H](O)[C@H]6O[C@H]6O[C@H](C)[C@H](O[C@@H]7O[C@H](COS(=O)(=O)O)[C@@H](O)[C@H](O)[C@H]7O)[C@H](O)[C@H]6O)CC[C@]45C)[C@]2(C)CC(=O)[C@@H]31`, the half-maximal inhibitory concentration (IC50) with MCF7 came to 1030 nM; with SK-MEL-2, 1250 nM; with LNCaP, 1920 nM; in the experiment with KB, 320 nM; in the experiment with HepG2 it was 4690 nM.
The matching figures for `CC(C)CCC[C@]1(C)OC(=O)[C@]23CC=C4[C@@H](CC[C@H]5C(C)(C)[C@@H](O[C@@H]6OC[C@@H](OS(=O)(=O)O)[C@H](O)[C@H]6O[C@H]6O[C@H](C)[C@H](O[C@@H]7O[C@H](COS(=O)(=O)O)[C@@H](O)[C@H](O)[C@H]7O)[C@H](O)[C@H]6O)CC[C@]45C)[C@]2(C)CC(=O)[C@@H]31`: 560 nM, 1470 nM, 1190 nM, 250 nM and 970 nM.
The like results for `C=C(C)CCC[C@]1(C)OC(=O)[C@]23CC=C4[C@@H](CC[C@H]5C(C)(C)[C@@H](O[C@@H]6OC[C@@H](OS(=O)(=O)O)[C@H](O)[C@H]6O[C@H]6O[C@H](C)[C@@H](O)[C@H](O)[C@H]6O)CC[C@]45C)[C@]2(C)CC(=O)[C@@H]31` were, in that order, 1330 nM, 7360 nM, 3300 nM, 1370 nM and 6080 nM.
The like results for `CO[C@@H]1[C@@H](O)[C@H](O[C@@H]2[C@@H](O)[C@H](O[C@H]3[C@H](O)[C@@H](O)[C@H](O[C@H]4[C@H](O[C@H]5CC[C@]6(C)[C@H]7CC[C@]89C(=O)O[C@@](C)(CCC=C(C)C)[C@H]8[C@@H](OC(C)=O)C[C@@]9(C)C7=CC[C@H]6C5(C)C)OC[C@@H](OS(=O)(=O)O)[C@@H]4O)O[C@@H]3C)OC[C@H]2O)O[C@H](CO)[C@H]1O` were, in that order, 370 nM, 850 nM, 1190 nM, 110 nM and 1160 nM.
`C=C(C)CCC[C@]1(C)OC(=O)[C@]23CC=C4[C@@H](CC[C@H]5C(C)(C)[C@@H](O[C@@H]6OC[C@@H](OS(=O)(=O)O)[C@H](O)[C@H]6O[C@@H]6O[C@H](C)[C@@H](O[C@@H]7O[C@H](COS(=O)(=O)O)[C@@H](O)[C@H](O[C@@H]8O[C@H](CO)[C@@H](O)[C@H](OC)[C@H]8O)[C@H]7O)[C@H](O)[C@H]6O[C@@H]6OC[C@@H](O)[C@H](O)[C@H]6O)CC[C@]45C)[C@]2(C)CC(=O)[C@@H]31`: the half-maximal inhibitory concentration (IC50) in the experiment with MCF7 stood at 200 nM; with SK-MEL-2, 240 nM; with LNCaP, 230 nM; in the experiment on KB, 40 nM; with HepG2, 70 nM.
The like results for `CO[C@@H]1[C@@H](O)[C@H](O[C@@H]2[C@@H](O)[C@H](O[C@H]3[C@H](O)[C@@H](O[C@@H]4OC[C@@H](O)[C@H](O)[C@H]4O)[C@H](O[C@H]4[C@H](O[C@H]5CC[C@]6(C)C7=CC[C@]89C(=O)O[C@@](C)(CCCC(C)C)[C@H]8C(=O)C[C@@]9(C)[C@@H]7CC[C@H]6C5(C)C)OC[C@@H](OS(=O)(=O)O)[C@@H]4O)O[C@@H]3C)O[C@H](COS(=O)(=O)O)[C@H]2O)O[C@H](CO)[C@H]1O` were, in that order, 130 nM, 110 nM, 170 nM, 30 nM and 70 nM.
Turning to `CC(C)CCC[C@]1(C)OC(=O)[C@]23CC=C4[C@@H](CC[C@H]5C(C)(C)[C@@H](O[C@@H]6OC[C@@H](OS(=O)(=O)O)[C@H](O)[C@H]6O[C@H]6O[C@H](C)[C@@H](O)[C@H](O)[C@H]6O)CC[C@]45C)[C@]2(C)CC(=O)[C@@H]31`, the IC50 with MCF7 came out at 1090 nM; in the experiment with SK-MEL-2 it was 4090 nM; in the experiment with LNCaP, 2110 nM; in the experiment with KB, 480 nM; in the experiment with HepG2, 2050 nM.
In the case of `Cc1c2ccncc2c(C)c2c1[nH]c1ccccc12` [ELLIPTECINE], the IC50 was found to be 1950 nM in the experiment on MCF7; 2150 nM in the experiment with SK-MEL-2; 1990 nM in the experiment on LNCaP; 2070 nM in the experiment on KB; 1710 nM in the experiment on HepG2.

These data come from ChEMBL document CHEMBL3600300, “Cytotoxic triterpene saponins from Cercodemas anceps” (Bioorg Med Chem Lett, 2015).
